Counter-ions that a name gives are not always drawn.
What was measured:
human D1 receptor = human D1 receptor (Homo sapiens (Human), UniProt P21728); assay: Dopamine D1 receptor agonism, HTRF cAMP assay; assay type: cell-based; conditions: for Emax: normalized to 30 uM dopamine = 100%
Description: Dopamine D1 receptor agonism was measured using a HTRF cAMP from CisBio using the protocol developed by HD Biosciences (China). Briefly, the assay is a homogeneous time resolved-fluorescence resonance energy transfer (HTRF) assay that measures production of cAMP by cells in a competitive immunoassay between native cAMP produced by cells and cAMP-labeled with XL-665. A cryptate-labeled anti-cAMP antibody visualizes the tracer. The assay was performed in accordance with instructions from manufacturer.
Test compounds were added to wells of microplates (384 format). HEK-293 cells expressing the human D1 receptor were plated at 1000 cells/well and incubated 30 min at room temperature. cAMP-d2 tracer was added to wells and followed by addition of Anti-cAMP antibody-cryptate preparation and incubated for 1 h at room temperature in dark. HTRF cAMP was measured by excitation of the donor with 337 nm laser (the “TRF light unit”) and subsequent (delay time 100 microseconds) measurement of cryptate and d2 emission at 615 nm and 665 nm over a time window of 200 microseconds with a 2000 microseconds time window between repeats/100 flashes). HRTF measurements were performed on an Envision microplate reader (PerkinElmer). The HTRF signal was calculated as the emission-ratio at 665 nm over 615 nm. The HTRF ratio readout for test compounds was normalized to 0% and 100% stimulation using control wells with DMSO-solvent or 30 uM dopamine. Test compound potency (EC50) was estimated by nonlinear regression using the sigmoidal dose-response (variable slope) using Xlfit 4 (IDBS, Guildford, Surrey, UK, model 205). y=(A+((B−A)/(1+((C/x)^D)))) where y is the normalized HTRF ratio measurement for a given concentration of test compound, x is the concentration of test compound, A is the estimated efficacy at infinite compound dilution, and B is the maximal efficacy. C is the EC50 value and D is the Hill slope coefficient. EC50 estimates were obtained from an independent experiment and the logarithmic average was calculated. Dopamine D2 Receptor Agonism

male CD rats = assay: Rat locomotor activity (hyperactivity) assay, open field; assay type: in vivo
Description: In total, 206 male CD rats (Charles River, Germany) weighing 200-250 grams (165-190 grams upon arrival) were used in the study. Animals were housed at a standard temperature (22±1° C.) and in a light-controlled environment (lights on from 7 am to […]) with ad libitum access to food and water. The experiment described below was performed in accordance with the standard operating procedures of Charles River Discovery Research Services Finland Ltd. and in accordance with the national Animal Experiment Board of Finland (Eläinkoelautakunta, ELLA) authority on animal testing.
The test device is a square Plexiglass-arena (measuring 40×40×40 cm), in which the movement paths of the rats are recorded by an activity monitor (Med. Associates Inc.). Before the test period is initiated, rats are habituated to their test cage for 60 minutes. Upon completion of habituation, animals were treated with either compound or vehicle and placed back into the open field apparatus. The main test parameter measured is ambulatory distance (recorded in 5 minute segments). Overall time of measurement after receiving initial treatment was 360 minutes. Total follow up period in the study was 420 min, including 60 min of habituation.

hepatocytes from human = assay: Conversion to compound (I) in human hepatocytes; assay type: in vitro ADME; conditions: 1 μg/mL, 37° C., 0.25-60 minutes, FIG. 7b
Description: The cell concentration at incubation was 1×10^6 viable cells/mL. The incubations were performed in glass tubes at 37° C. with a total incubation volume of 3.5 mL and with duplicate incubations for each test item. The 3.5 mL of hepatocyte suspension was equilibrated for 10 minutes in a water bath set to 37° C. where after the incubations were initiated by adding 3.5 μL of a stock solution of the test item in DMSO (Dimethyl sulfoxide) and gently inverting the tubes. The final solvent concentration in the incubations was 0.1% DMSO. Samples of 600 μL were withdrawn from the incubations at the pre-determined time points of 0.25, 5, 15, 30 and 60 minutes after ensuring homogeneity of hepatocyte suspensions. The withdrawn volume was added to 1 mL Nunc cryo tubes on wet ice containing 60 μL of ice cold ascorbic acid (100 mg/mL) and 30 μL of ice cold 100 mM saccharic acid 1.4-lactone in 0.5 M citric acid. The tubes were mixed and 35 μL of a solution of ice cold 20% formic acid was added. The tubes were mixed thoroughly and stored at −80° C. awaiting analysis. Analysis method and Instrumentation used for analysis of (I) from dosing (Id-ia), (Id-ib), (Id-iia) and (Id-iib), were the one described in Examples 4 and 5 below in the section “Instrumentation used for analysis of compound (I) from dosing of compounds (Ic), (Id-ia), (Id-ib), (Id-iia), (Id-iib), (Id-iab) and (Id-iiab).”
Analysis method and Instrumentation used for analysis of (I) from dosing (Id-iab) and (Id-iiab) consisted of mixing equal aliquots of the samples and precipitation solution (acetonitrile (MeCN) with 10% methanol (MeOH) and 1% formic acid), followed by centrifugation at 4° C. at 16000 g for 10 minutes. Supernatants were collected and analysed by LC-MS/MS. Mass spectrometer: Waters Acquity—Waters Xevo TQ-MS. Analytical column: Acquity UPLC HSS T3, 100×2.1 mm, 1.8 μm. Mobile phase A: 0.2% formic acid in water. Mobile phase B: 0.2% formic acid in acetonitrile. Gradient run from 95/5% to 60/40 in 5 min. Flow rate 0.3 mL/min. MRM monitoring of (I) in the study samples and in the analytical standards.

[1] = Conversion to compound (I) in fresh rat blood; assay type: in vitro ADME; conditions: fresh blood 37° C., 1 μg/mL, 0-60 minutes, FIG. 8a
Description: (§1) Conversion of (Id-ia), (Id-ib), (Id-iia) and (Id-iib) in human blood (average of 3 donors) and rat blood (average of 45 donors) to (I) was shown in fresh blood at 37° C. spiked with 1 μg/mL of (Id-ia), (Id-ib), (Id-iia) and (Id-iib) separately, (I) was measured at 0, 5, 15, 30 and 60 minutes in isolated plasma. Analysis method and Instrumentation as described in Examples 4 and 5 below in the section “Instrumentation used for analysis of compound (I) from dosing of compounds (Ic), (Id-ia), (Id-ib), (Id-iia), (Id-iib), (Id-iab) and (Id-iiab).”

[2] = Conversion to compound (I) in fresh human blood; assay type: in vitro ADME; conditions: fresh blood 37° C., 1 μg/mL, 0-60 minutes, FIG. 8b
Description: as §1

human D1 receptor, sequence (P21728 whole entry): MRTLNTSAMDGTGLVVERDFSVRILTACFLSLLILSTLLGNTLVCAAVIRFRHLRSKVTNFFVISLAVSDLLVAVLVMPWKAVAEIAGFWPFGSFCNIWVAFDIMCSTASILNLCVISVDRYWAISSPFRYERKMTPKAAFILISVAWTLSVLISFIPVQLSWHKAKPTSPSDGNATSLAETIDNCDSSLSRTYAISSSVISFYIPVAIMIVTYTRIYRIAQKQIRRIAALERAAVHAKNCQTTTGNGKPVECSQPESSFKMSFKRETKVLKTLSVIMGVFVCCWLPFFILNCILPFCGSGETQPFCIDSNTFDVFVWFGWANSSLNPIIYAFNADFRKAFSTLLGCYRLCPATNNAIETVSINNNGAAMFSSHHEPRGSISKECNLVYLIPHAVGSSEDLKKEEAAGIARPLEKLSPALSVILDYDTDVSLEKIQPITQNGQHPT

SMILES	in vitro dopaminergic activity (in words) (human D1 receptor; D1 and D2, example 2)	Emax (human D1 receptor) [%]	relationship between behavioral effect and plasma concentrations (male CD rats; (Id-ia) 100 μg/kg p.o. (FIG. 5), apomorphine 3 mg/kg s.c. (FIG. 6))	start of locomotor activity effect post-administration (male CD rats; (Id-ia) 10 to 300 μg/kg p.o., apomorphine 3 mg/kg s.c., pramipexole 0.3 mg/kg s.c.) [h]	total distance travelled vs vehicle (male CD rats; FIG. 4, (Id-ia) p.o., apomorphine 3 mg/kg s.c., pramipexole 0.3 mg/kg s.c.)	time until locomotor effect is gone (male CD rats; apomorphine: post administration, pramipexole: after appearance of effect, (Id-ia): recording ended at 415-minute time point)	conversion to compound (I) in human hepatocytes (hepatocytes from human)	conversion to compound (I) in rat blood [1]	conversion to compound (I) in human blood [2]	EC50 (human D1 receptor; HEK-293 cells expressing human D1 receptor, cAMP) [µM]
CCCN1CCC[C@@H]2Cc3c(ccc(O)c3O[C@@H]3O[C@H](C(=O)O)[C@@H](O)[C@H](O)[C@H]3O)C[C@H]21 [(Id-ia), (2S,3S,4S,5R,6S)-3,4,5-trihydroxy-6-(((4aR,10aR)-7-hydroxy-1-propyl-1,2,3,4,4a,5,10,10a-octahydrobenzo[g]quinolin-6-yl)oxy)tetrahydro-2H-pyran-2-carboxylic acid]	no in vitro dopaminergic activity	98	correlate with the plasma concentrations of compound (I)	~2	significantly increased activity	lasting until the end of recording	time dependent conversion to compound (I)	time dependent conversion to compound (I)	time dependent conversion to compound (I)	
CCCN1CCC[C@@H]2Cc3c(ccc(O)c3OS(=O)(=O)O)C[C@H]21 [(Id-iia), (4aR,10aR)-7-hydroxy-1-propyl-1,2,3,4,4a,5,10,10a-octahydrobenzo[g]quinolin-6-yl hydrogen sulfate]		49					time dependent conversion to compound (I)	time dependent conversion to compound (I)	time dependent conversion to compound (I)	> 30
